Laboratory results: patent US20130005733A1, “COMBINATION ANTI-CANCER THERAPY” (OSI Pharmaceuticals, LLC, priority 2010, published 2013)

Assays:
[1] = test system: H460 NSCLC xenograft; assay: Tumor growth inhibition in vivo, xenograft; conditions: single agent
Protocol: Evaluation of tumor growth inhibition in vivo: Evaluation of tumor growth inhibition in vivo was conducted at OSI facilities with the approval of the Institutional Animal Care and Use Committee (IACUC) in an American Association for Accreditation of Laboratory Animal Care (AAALAC) accredited vivarium and in accordance with the Institute of Laboratory Animal Research (Guide for the Care and Use of Laboratory Animals, NIH, Bethesda, Md., USA). For this study, female athymic nude nu/nu CD-1 mice (6-8 wks, 20-28 g, Charles River Laboratories, Wilmington, Mass., USA) were allowed to acclimate for a minimum of one week prior to initiation of the study. To evaluate tumor growth inhibition, cells were harvested from cell culture flasks during exponential cell growth, washed twice with sterile PBS, counted and resuspended in PBS to a suitable concentration before subcutaneous implantation on the right flank of nu/nu CD-1 mice. Tumors were established to 200±50 mm^3 in size before randomization into treatment groups of 8 mice each. […]
where Tt=median tumor volume of treated at time t; T0=median tumor volume of treated at time 0; Ct=median tumor volume of control at time t; and C0=median tumor volume of control at time 0. The average TGI over the dosing period was then calculated and reported. […]

[2] = test system: pPRAS40 (T246) in MDAH2774; assay: Western blot of phospho-PRAS40; type: cell-based, Human; conditions: 300 nM each agent, 2 hours
Protocol: (§1) Cell extracts were prepared by detergent lysis (50 mM Tris-HCl, pH 8.0, 150 mM NaCl, 1% NP-40, 0.5% sodium deoxycholate, 0.1% SDS, containing protease inhibitor (P8340, Sigma, St. Louis, Mo.) and phosphatase inhibitor (P5726, Sigma, St. Louis, Mo.) cocktails. The soluble protein concentration was determined by micro-BSA assay (Pierce, Rockford, Ill.). Pixel density was determined using AlphaEaseFC software (Alpha Innotech, San Leandro, Calif.). Protein immunodetection was performed by electrophoretic transfer of SDS-PAGE separated proteins to nitrocellulose, incubation with antibody, and chemiluminescent second step detection (PicoWest; Pierce, Rockford, Ill.). The antibodies included: 4E-BP1, p-4E-BP1(T37/46), PRAS40, and pPRAS40 ([…]). Antibodies were obtained from Cell Signaling Technology, Inc. (Danvers, Mass.). […] The media was removed, cells were washed two times with PBS, and cells were lysed as previously described.

[3] = test system: p-4E-BP1(T37/46); assay: Western blot of phospho-4E-BP1; type: cell-based, Human; conditions: 300 nM each agent; 2 hours
Protocol: as §1

[4] = test system: IR phosphorylation in Ovcar-3 ovarian carcinoma cells; assay: Phospho-RTK antibody array (Proteome Profiler); type: cell-based, Human; conditions: Ovcar-3 (KRAS wt); 3 uM each agent; relative to DMSO
Text: (§2) Measurement of phosphorylated receptor tyrosine kinases: A commercially available membrane-based antibody array (Proteome Profiler Array, R&D Systems, Minneapolis, Minn.) was used to simultaneously co-immunoprecipitate 42 different receptor tyrosine kinases (RTKs) in duplicate and measure specific phospho-epitopes on each. The phospho-epitopes were detected by chemiluminescence, quantitated based on pixel density for each pair of spots and expressed relative to vehicle-treated controls. Pixel density was determined using AlphaEaseFC software (Alpha Innotech, San Leandro, Calif.).

[5] = test system: IR phosphorylation in MDAH2774 ovarian carcinoma cells; assay: Phospho-RTK antibody array (Proteome Profiler); type: cell-based, Human; conditions: MDAH2774 (KRAS mutant); 3 uM each agent; 2 hour treatment
Text: as §2

[6] = test system: IGF-1R phosphorylation in MDAH2774 ovarian carcinoma cells; assay: Phospho-RTK antibody array (Proteome Profiler); type: cell-based, Human; conditions: MDAH2774 (KRAS mutant); 3 uM each agent; 2 hour treatment
Text: as §2

[7] = test system: IGF-1R phosphorylation in H460 lung carcinoma cells; assay: Phospho-RTK antibody array (Proteome Profiler); type: cell-based, Human; conditions: 3 uM, relative to DMSO
Text: as §2

[8] = test system: Ovcar3; assay: Cell Titer Glo proliferation assay, ovarian cell line panel; type: cell-based, Human; conditions: Ovcar3, single agent, cell viability at 72 hours
Protocol: (§3) Cell lines: Human cancer cell lines were purchased from the American Type Culture Collection (ATCC). The cell lines Ovcar-3, MDAH2774, Caov3, lgrov-1, and MDA-MB-231 were grown in media as prescribed by the ATCC, containing 10% FCS. HNSCC 1483, HNSCC 1386, HNSCC 1186 were a gift from Memorial Sloan Kettering and were cultured in 1:1 DMEM: Hams F12 with 10% FCS. Ovcar-4, Ovcar-5, and Ovcar-8 were obtained from the NCI and were grown in RPMI with 10% FCS. Measurement of proliferation: Inhibition of proliferation was measured using the Cell Titer Glo Assay (Promega Corporation, Madison, WI). Cell lines were seeded at a density of 3000 cells per well in a 96-well plate. 24 hours after plating cells were dosed with varying concentrations of drug, either as a single agent or in combination. […] Inhibition of proliferation, relative to vehicle-treated controls was expressed as a fraction of 1 and graphed using PRISM® software (Graphpad Software, San Diego, Calif.). Analysis of Synergy: The Bliss additivism model was used to classify the effect of combining OSI-027 and OSI-906 as additive, synergistic or antagonistic. A theoretical curve was calculated for combined inhibition using the equation: Ebliss=EA+EB−EA*EB, where EA and EB are the fractional inhibitions obtained by drug A alone and drug B alone at specific concentrations. Here, Ebliss is the fractional inhibition that would be expected if the combination of the two drugs was exactly additive. If the experimentally measured fractional inhibition was less than Ebliss the combination was said to be synergistic. If the experimentally measured fractional inhibition was greater than Ebliss the combination was said to be antagonistic. For dose response curves, the bliss additivity was calculated for varying doses of drug A when combined with a constant dose of drug B. This allowed an assessment as to whether drug B affected the potency of drug A or shifted its intrinsic activity. All plots were generated using Graphpad Prism software.

[9] = test system: MDAH2774; assay: as above; type: cell-based, Human; conditions: MDAH2774 (KRAS mutant), single agent, cell viability at 72 hours
Protocol: as §3

[10] = test system: Ovcar-5; assay: as above; type: cell-based, Human; conditions: Ovcar-5 (KRAS mutant), single agent, cell viability at 72 hours
Protocol: as §3

[11] = test system: Igrov1; assay: as above; type: cell-based, Human; conditions: Igrov1, single agent, cell viability at 72 hours
Protocol: Cell lines: Human cancer cell lines were purchased from the American Type Culture Collection (ATCC). The cell lines Ovcar-3, MDAH2774, Caov3, lgrov-1, and MDA-MB-231 were grown in media as prescribed by the ATCC, containing 10% FCS. HNSCC 1483, HNSCC 1386, HNSCC 1186 were a gift from Memorial Sloan Kettering and were cultured in 1:1 DMEM: Hams F12 with 10% FCS. Ovcar-4, Ovcar-5, and Ovcar-8 were obtained from the NCI and were grown in RPMI with 10% FCS. Measurement of proliferation: Inhibition of proliferation was measured using the Cell Titer Glo Assay (Promega Corporation, Madison, WI). Cell lines were seeded at a density of 3000 cells per well in a 96-well plate. 24 hours after plating cells were dosed with varying concentrations of drug, either as a single agent or in combination. […] Inhibition of proliferation, relative to vehicle-treated controls was expressed as a fraction of 1 and graphed using PRISM® software (Graphpad Software, San Diego, Calif.).

[12] = test system: Ovcar-5 cells; assay: Caspase 3/7 Glo apoptosis assay; type: cell-based, Human; conditions: 48 hrs after treatment, OSI-027 varying doses alone or with 5 uM OSI-906
Protocol: Measurement of apoptosis: […] Cell lines were seeded at a density of 3000 cells per well in a 96-well plate. 24 hours after plating cells were dosed with varying concentrations of drug, either as a single agent or in combination. […] The caspase 3/7 activity was normalized to cell number per well, using a parallel plate treated with Cell Titer Glo (Promega Corporation, Madison, WI). Signal for each well was normalized using the following formula: Caspase 3/7 Glo luminescence units/Cell Titer Glo fraction of DMSO control. All graphs were generated using PRISM® software (Graphpad Software, San Diego, Calif.). […] A theoretical curve was calculated for combined inhibition using the equation: Ebliss=EA+EB−EA*EB, where EA and EB are the fractional inhibitions obtained by drug A alone and drug B alone at specific concentrations. […] If the experimentally measured fractional inhibition was less than Ebliss the combination was said to be synergistic. If the experimentally measured fractional inhibition was greater than Ebliss the combination was said to be antagonistic. For dose response curves, the bliss additivity was calculated for varying doses of drug A when combined with a constant dose of drug B. This allowed an assessment as to whether drug B affected the potency of drug A or shifted its intrinsic activity. […]

Row | Compound | tumor growth inhibition (TGI) ([1]; OSI-027 50 mg/kg oral daily for 14 days) [%] | inhibition of phosphor-PRAS40 [2] | phosphorylation of 4E-BP1 [3] | phosphorylation of IR [4] | phosphorylation of IR [5] | phosphorylation of IGF-1R [6] | phosphorylation of IGF-1R [7] | sensitivity of cell line (inhibition of proliferation) [8] | sensitivity of cell line (inhibition of proliferation) [9] | sensitivity of cell line (inhibition of proliferation) [10] | sensitivity of cell line (inhibition of proliferation) [11] | induction of apoptosis (caspase 3/7 activity) [12] | tumor growth inhibition (TGI) ([1]; OSI-906 60 mg/kg once-daily for 14 days) [%]
1 | COc1cccc2cc(-c3nc([C@H]4CC[C@H](C(=O)O)CC4)n4ncnc(N)c34)[nH]c12 [OSI-027, trans-4-[4-amino-5-(7-methoxy-1H-indol-2-yl)imidazo[5,1-f][1,2,4]triazin-7-yl]cyclohexanecarboxylic acid] | 66 | partial inhibition | reduced | hyperphosphorylated | increased | increased | hyperphosphorylation of IGF-1R | most sensitive | relatively insensitive | relatively insensitive | most sensitive | did not significantly induce apoptosis | 
2 | C[C@]1(O)C[C@@H](c2nc(-c3ccc4ccc(-c5ccccc5)nc4c3)c3c(N)nccn32)C1 [OSI-906, cis-3-[8-amino-1-(2-phenylquinolin-7-yl)-imidazo[1,5-a]pyrazin-3-yl]-1-methylcyclobutanol] |  | inhibits phosphor-PRAS40 to a greater degree | No significant decrease | fully attenuates phosphor-IR, below the basal level | reduced | reduced |  | among the least sensitive | most sensitive | most sensitive | among the least sensitive |  | 69
3 | Nc1nccn2c1c(-c1cc3cccc(Cl)c3[nH]1)nc2[C@H]1CC[C@H](C(=O)O)CC1 [OXA-01] |  |  |  |  |  |  | increases p-IGF-1R to a greater degree than erlotinib |  |  |  |  |  | 
4 | C#Cc1cccc(Nc2ncnc3cc(OCCOC)c(OCCOC)cc23)c1 [erlotinib, reference compound] |  |  |  |  |  |  | hyperphosphorylation of IGF-1R |  |  |  |  |  | 
